The values that follow come from patent US20240025907A1, “QUINAZOLINE PAN-KRas INHIBITORS” (Mirati Therapeutics, Inc., priority 2022, published 2024).

One experiment addresses T1, KRas^WT (Homo sapiens, UniProt P01116).
T1 construct: Biotinylated KRas (corresponding to amino acids 1-169, produced at Accelegan Inc.); biotin (biotinylated); purchased Accelegan Inc
In words: KRas TR-FRET tracer displacement binding assay, WT. The settings on record: 60-minute incubation. As to the method:
(§1) KRas^WT, KRas^G12A, KRas^G12C, KRas^G12D, KRas^G12R, KRas^G12S, KRas^G12V, KRas^G13D, or KRas^Q61H was used in the assay.
(§2) The ability of a compound to bind to KRas was measured using a TR-FRET displacement assay. Biotinylated KRas (corresponding to amino acids 1-169, produced at Accelegan Inc.) was incubated with custom made Cy5 labelled tracer, terbium streptavidin (Cisbio Inc.) and compound (1% DMSO final) in buffer (50 mM HEPES, pH 7.5, 5 mM MgCl2, 0.005% Tween-20 and 1 mM DTT). After a 60-minute incubation at room temperature, the reaction was measured using a BMG LABTECH CLARIO star Plus via TR-FRET.
(In general: In TR-FRET formats the signal depends on donor and acceptor labels being close together.)

Another experiment has as its target T2, KRas^G12S (Homo sapiens, UniProt P01116, G12S).
T2 construct: Biotinylated KRas (corresponding to amino acids 1-169, produced at Accelegan Inc.); biotin (biotinylated); purchased Accelegan Inc
As to the kind of experiment: KRas TR-FRET tracer displacement binding assay, G12S. To be noted: 60-minute incubation. As to the method:
as §1, §2

In another experiment the target is T3, KRas^G12C (Homo sapiens, UniProt P01116, G12C).
T3 construct: Biotinylated KRas (corresponding to amino acids 1-169, produced at Accelegan Inc.); biotin (biotinylated); purchased Accelegan Inc
T3 sequence (P01116 1-169 isoform P01116-2 G12C): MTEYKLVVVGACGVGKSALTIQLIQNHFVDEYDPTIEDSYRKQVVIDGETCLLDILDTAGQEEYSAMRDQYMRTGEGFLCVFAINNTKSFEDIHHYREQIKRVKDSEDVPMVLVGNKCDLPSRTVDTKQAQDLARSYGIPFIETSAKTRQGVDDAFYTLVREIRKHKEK
As to the kind of experiment: KRas TR-FRET tracer displacement binding assay, G12C. To be noted: 60-minute incubation. On the procedure: as §1, §2

In another experiment the target is T4, KRas^G12D (Homo sapiens, UniProt P01116, G12D).
T4 construct: Biotinylated KRas (corresponding to amino acids 1-169, produced at Accelegan Inc.); biotin (biotinylated); purchased Accelegan Inc
T4 sequence (P01116 1-169 isoform P01116-2 G12D): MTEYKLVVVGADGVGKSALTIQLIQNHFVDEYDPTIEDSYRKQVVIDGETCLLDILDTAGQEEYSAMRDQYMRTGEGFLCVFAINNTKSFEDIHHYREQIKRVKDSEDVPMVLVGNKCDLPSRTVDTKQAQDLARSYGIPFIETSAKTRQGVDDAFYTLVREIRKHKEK
As to the kind of experiment: KRas TR-FRET tracer displacement binding assay, G12D. The settings on record: 60-minute incubation. On the procedure: as §1, §2

Experiment [1] relates to KRas-mediated Phosphorylation of ERK in AsPC-1 cells. In words: Cisbio HTRF pERK assay, AsPC-1 cells. The experiment is classed as cell-based. To be noted: 3 hrs compound, read-out: Inhibition (HTRF IC50 nM) of KRas-mediated Phosphorylation of ERK, AsPC-1.
In experiment [2] the test system is KRas-mediated Phosphorylation of ERK in A549 cells. In words: Cisbio HTRF pERK assay, A549 cells. To be noted: A549 cells, 3 hrs compound; read-out: Inhibition (HTRF IC50 nM) of KRas-mediated Phosphorylation of ERK, A549. It is filed as cell-based.
The subject of experiment [3] is KRas-mediated Phosphorylation of ERK in H727 cells. As to the kind of experiment: Cisbio HTRF pERK assay, H727 cells. The experiment is classed as cell-based. To be noted: 3 hrs compound, read-out: Inhibition (HTRF IC50 nM) of KRas-mediated Phosphorylation of ERK, H727.
The subject of experiment [4] is KRas-mediated Phosphorylation of ERK in H358 cells. As to the kind of experiment: Cisbio HTRF pERK assay, H358 cells. The experiment is classed as cell-based. The settings on record: H358 cells, 3 hrs compound; read-out: Inhibition (HTRF IC50 nM) of KRas-mediated Phosphorylation of ERK, H358.
The next experiment concerns the target T5, KRas^G12V (Homo sapiens, UniProt P01116, G12V).
T5 construct: Biotinylated KRas (corresponding to amino acids 1-169, produced at Accelegan Inc.); biotin (biotinylated); purchased Accelegan Inc
As to the kind of experiment: KRas TR-FRET tracer displacement binding assay, G12V. To be noted: 60-minute incubation. On the procedure: as §1, §2

T5 sequence (P01116 1-169 isoform P01116-2 G12V): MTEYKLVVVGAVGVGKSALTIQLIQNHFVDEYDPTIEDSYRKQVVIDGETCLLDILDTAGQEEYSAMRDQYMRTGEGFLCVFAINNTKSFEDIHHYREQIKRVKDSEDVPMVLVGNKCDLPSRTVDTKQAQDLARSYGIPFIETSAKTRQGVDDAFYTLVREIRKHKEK
T1 sequence (P01116 1-169 isoform P01116-2): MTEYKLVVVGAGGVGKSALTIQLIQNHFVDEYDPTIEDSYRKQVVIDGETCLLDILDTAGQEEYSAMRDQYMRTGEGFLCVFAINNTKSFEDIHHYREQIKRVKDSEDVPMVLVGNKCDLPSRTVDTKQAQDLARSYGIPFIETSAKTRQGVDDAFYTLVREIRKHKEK
T2 sequence (P01116 1-169 isoform P01116-2 G12S): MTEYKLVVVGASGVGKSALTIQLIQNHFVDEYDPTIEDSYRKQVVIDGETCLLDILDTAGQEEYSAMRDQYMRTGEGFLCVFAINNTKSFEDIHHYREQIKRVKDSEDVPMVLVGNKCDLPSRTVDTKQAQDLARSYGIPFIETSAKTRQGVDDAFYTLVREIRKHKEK

For `N#Cc1c(N)sc2c(F)ccc(-c3c(Cl)cc4c(N5CCCOC6CC65)nc(OC[C@@]56CCCN5C[C@H](F)C6)nc4c3F)c12` (single isomer, unassigned) [Example 212], the IC50 (usually the concentration needed to halve the response being measured) on KRas^WT is 6 nM; at KRas^G12S, 6 nM; on KRas^G12C, 6 nM; on KRas^G12D it was 14 nM; in experiment [1], 230 nM; in experiment [2], 76 nM. Also, the IC50 came to 357 nM in experiment [3], 22 nM in experiment [4] and 11 nM on KRas^G12V.

On to `CC(Oc1nc(N(C)C)c2cc(F)c(-c3ccc(F)c4sc(N)c(C#N)c34)c(F)c2n1)C12CCCN1CCC2` (single isomer, unassigned; isomer 1) [Example 177, 2-amino-4-(4-(dimethylamino)-6,8-difluoro-2-(1-(tetrahydro-1H-pyrrolizin-7a(5H)-yl)ethoxy)quinazolin-7-yl)-7-fluorobenzo[b]thiophene-3-carbonitrile (isomer 1)], for which the IC50 at KRas^WT is 40 nM; on KRas^G12S, 42 nM; at KRas^G12C, 36 nM; on KRas^G12D, 107 nM; on KRas^G12V it was 18 nM.

For the compound `N#Cc1c(N)sc2c(F)ccc(-c3c(Cl)cc4c(N5CCCOC6CC65)nc(OC[C@@]56CCCN5C[C@H](F)C6)nc4c3F)c12` (single isomer, unassigned) [Example 213], the IC50 worked out at 11 nM on KRas^WT; 5 nM at KRas^G12S; 8 nM at KRas^G12C; 9 nM at KRas^G12D; 761 nM in experiment [1]; 398 nM in [2]. In addition, the IC50 in experiment [3] came out at 767 nM; in experiment [4], 160 nM; on KRas^G12V, 4 nM.

As for `CC1CN(C)CCCN1c1nc(N(C)C)c2cc(Cl)c(-c3ccc(F)c4sc(N)c(C#N)c34)c(F)c2n1` (stereo not drawn) [Example 217, 2-amino-4-(6-chloro-2-(2,4-dimethyl-1,4-diazepan-1-yl)-4-(dimethylamino)-8-fluoroquinazolin-7-yl)-7-fluorobenzo[b]thiophene-3-carbonitrile], the IC50 at KRas^WT worked out at 251 nM; at KRas^G12S, 275 nM; on KRas^G12C, 184 nM; on KRas^G12D it was 959 nM; at KRas^G12V, 75 nM.

Consider `CC(Oc1nc(N(C)C)c2cc(F)c(-c3ccc(F)c4sc(N)c(C#N)c34)c(F)c2n1)C12CCCN1CCC2` (single isomer, unassigned; isomer 2) [Example 178, 2-amino-4-(4-(dimethylamino)-6,8-difluoro-2-(1-(tetrahydro-1H-pyrrolizin-7a(5H)-yl)ethoxy)quinazolin-7-yl)-7-fluorobenzo[b]thiophene-3-carbonitrile (isomer 2)], for which the IC50 at KRas^WT was found to be 17 nM; on KRas^G12S, 28 nM; on KRas^G12C, 20 nM; at KRas^G12D, 92 nM; at KRas^G12V, 10 nM.
